Results reported in patent US20070231256A1, “Compositions and methods for detecting and treating tumors containing acidic areas” (priority 2006, published 2007).
“And” between values parts separate entries of the source, which are not always exact repeats. Equal entries are not always repeated.

Assays:
[1] = test system: tumors; settings: tumor-bearing mice, reduction of about 0.3 pH units in the tumors; cited from earlier work
[2] = Henderson-Hasselbalch calculation of percent in acid form; settings: calculated; for Percent in Acid Form at pH 6.4: pH 6.4 (acidic areas of tumors); for Percent in Acid Form at pH 7.4: pH 7.4 (normal tissues)
Excerpt: The interstitial space in normal tissues is generally at or very near pH 7.4, and in acidic areas of tumors a pH of around 6.4 is fairly typical or readily achievable by known methods. If one knows the pKa value of an acid substance (pKa is the pH at which the acid moiety is half ionized in aqueous solution) one can use the Henderson-Hasselbalch equation (pH=pKa+log [A−]/[HA]) to calculate what fraction of that substance will be in the acid form at any selected pH. […] It should be noted that for carboxyl-containing substances whose acid forms are water soluble, the pKa and pS values are quite similar.
In these calculations the Henderson-Hasselbalch equation was used to calculate the relative concentration of salt and acid forms at a given pH for a substance having acid moieties with a specified pKa or pS value. Then a binomial expansion was used to calculate the concentration of the all-acid form for an onco tool containing 2 or 3 pH-switch components.

[3] = physchem
Procedure: In regard to initial testing, a simple pH titration of the prospective pH-switch structure in physiological saline is fast and easy and provides useful information about the key properties one is attempting to achieve.
Typically new structures that may be suitable as advanced pH-switch components are first assessed for their pS value. This entails preparing the sodium salt form of the structure and dissolving it at a concentration of 20 milliMolar in 15 ml of 0.15 Molar NaCl (deareated to remove CO2). […] A plot of pH versus volume of added HCl affords the pS value.
The sodium salts of compounds shown in FIG. 11a (designed to form internal acid-specific H-bond) and 11b (designed to form non-acid-specific H-bonds) were titrated in aqueous solution.

Row | Structure (SMILES) | improvement in tumor growth delay [1] [fold] | Percent in Acid Form at pH 6.4 [2] [%] | Percent in Acid Form at pH 7.4 [2] [%] | pKa [3] | minimum of first derivative of the titration curve (pH) ([3]; titrated in water / aqueous solution)
1 | O=C(O)CCCc1ccc(N(CCCl)CCCl)cc1 [Chlorambucil] | 1.7 | 20.1 | 2.4 | – | –
2 | CCCCCCCC(=O)O [octanoic acid] | – | – | – | 5.5 | –
3 | CCC(=O)O [propionic acid] | – | 2.9 | 0.3 | – | –
4 | CCC[N+]1([O-])CCC(C(=O)O)CC1 (stereo not shown) [structure iii in FIG. 15b, N-oxide of N-propylisonipocotic acid] | – | – | – | – | ~4.0 and ~5.6
